The test system of one data set is DU145. Nature of the data set: MTT cell viability assay, DU145. The following applies: Homo sapiens, DU-145; DU145, MTT, 72 h, mean ± SD. It counts as cell-based, human. How it is done:
(§1) Twelve compounds (2a-e, 3a-d and 4a-c) at a concentration range of 50–5000 μM were tested for their antiproliferative potential against four human cancer cell lines (A375—melanotic melanoma, C32—amelanotic melanoma, DU145—prostate cancer androgen-independent, MCF-7/WT—breast adenocarcinoma) and two normal cell lines: Chinese Hamster Ovary (CHO-K1) and immortalized human keratinocytes from histologically normal skin (HaCaT).
(§2) To determine the antiproliferative activity of newly synthesized compounds, the following cell lines were used: human melanotic melanoma cell line (A375), human amelanotic melanoma cell line (C32), human breast adenocarcinoma cell line (MCF-7/WT), human prostate cancer androgen-independent (DU145) and two normal cell lines: hamster ovarian (CHO-K1) and immortalized human keratinocytes from histologically normal skin (HaCaT). The cells were obtained from the cell line bank of the Department of Molecular and Cellular Biology, Wroclaw Medical University. A375, C32, MCF-7/WT, DU145 and HaCaT cells were grown in a monolayer cultured in Dulbecco’s Modified Eagle’s Medium (DMEM, Sigma-Aldrich, Poznań, Poland), supplemented with 10% of fetal bovine serum (FBS, Gibco, Paisley, UK) and 1% of antibiotics (penicillin/streptomycin, Sigma-Aldrich) and CHO-K1 were grown in HAM’s F-12 medium (Sigma-Aldrich), supplemented with 10% fetal bovine serum (FBS, Gibco) and 1% of antibiotics (penicillin/streptomycin, Sigma-Aldrich). Cell lines were cultured in the polystyrene flasks 25 or 75 cm^2 (Thermo Fisher Scientific, Waltham, MA, USA), which were stored in 37 °C and 5% CO2 in a humidified 95% atmosphere (SteriCult, Thermo Scientific, Alab). The cell medium was exchanged twice a week. The exponentially growing cells were used throughout the experiments. The cells were rinsed with phosphate-buffered saline (PBS, Sigma-Aldrich) and trypsinized by Trypsin-EDTA 0.25% solution (Sigma-Aldrich).
(§3) The influence of the compounds was performed in a monolayer culture on cancer and normal cells. Compounds were initially dissolved in DMSO; further dilutions of the compound were performed in Dulbecco’s Modified Eagle’s Medium supplemented with 10% FBS. Compounds were tested in a 50–5000 µM concentration range. In the in vitro experiments, the concentrations of DMSO in the final solution of the compounds were used 0.05%; 0.1%; 0.5%; 1%, respectively.
(§4) Cell viability was determined using the MTT colorimetric assay. All cell lines were seeded into 96-well plates to a density of 3 × 10^4 cells/well. After 24 h, the culture supernatants were removed and appropriate dilutions of compounds in the culture medium (200 µL/well) were added to the cells’ monolayer cultures and incubated for an additional 72 h. After 72 h of exposition to the compounds and the removal of the culture medium, cell viability was determined by reducing the yellow dye 3-(4,5-dimethyl-2-thiazol)-2,5-diphenyl-2H-tetrazolium bromide (MTT assay, Sigma Saint Louis, MO, USA; In Vitro Toxicology Assay) to a blue formazan product. The absorbance of the resulting solutions in three duplicate experiments was measured at the wavelength of 560 nm in a microplate reader (EnSpire, Perkin Elmer, Kraków, Poland). MTT assay is a colorimetric method that estimates the rate of metabolism in viable cells. Absorbance is directly proportional to the number of viable cells. All the experiments were performed three times and the mean absorbance values were calculated. The methodology for the evaluation of the growth of human cancer and normal cells was described previously. The cell viability in each group was expressed as a percentage of control (untreated) cells.
For orientation: Formazan colour is commonly taken as a measure of viable cells.

The test system of another data set is CHO-K1. Nature of the data set: MTT cell viability assay, CHO-K1. It counts as cell-based, Chinese Hamster. The following applies: Cricetulus griseus; CHO-K1 normal cells, MTT, 72 h, mean ± SD. The procedure: as §1, §2, §3, §4
The test system of the next data set is HL-60(TB). The experiment in a line: NCI-60 screen, Leukemia HL-60(TB). It counts as cell-based, human. The following applies: for Growth of Cells (%): 10^−5 M one dose.
Another data set deals with MOLT-4. The experiment in a line: NCI-60 screen, Leukemia MOLT-4. The data set is classed as cell-based, human. To be noted: for Growth of Cells (%): MOLT-4, 10^−5 M one dose.
In the next data set the test system is HOP-92. The experiment in a line: NCI-60 screen, Non-Small Cell Lung Cancer HOP-92. It counts as cell-based, human. To be noted: for Growth of Cells (%): HOP-92, 10^−5 M one dose.
The test system of another data set is NCI-H23. The experiment in a line: NCI-60 screen, Non-Small Cell Lung Cancer NCI-H23. It counts as cell-based, human. The following applies: for Growth of Cells (%): NCI-H23, 10^−5 M one dose.
The test system of another data set is NCI-H322M. Nature of the data set: NCI-60 screen, Non-Small Cell Lung Cancer NCI-H322M. The data set is classed as cell-based, human. The following applies: for Growth of Cells (%): 10^−5 M one dose.
The subject of a further data set is COLO-205. The experiment in a line: NCI-60 screen, Colon Cancer COLO-205. It counts as cell-based, human. To be noted: for Growth of Cells (%): COLO-205, 10^−5 M one dose.
A further data set deals with KM12. The experiment in a line: NCI-60 screen, Colon Cancer KM12. To be noted: for Growth of Cells (%): KM12, 10^−5 M one dose. The data set is classed as cell-based, human.
The next data set has as its system SF-295. Nature of the data set: NCI-60 screen, CNS Cancer SF-295. It counts as cell-based, human. To be noted: for Growth of Cells (%): SF-295, 10^−5 M one dose.
The next data set has as its system NCI/ADR-RES. Nature of the data set: NCI-60 screen, Ovarian Cancer NCI/ADR-RES. The data set is classed as cell-based, human. To be noted: for Growth of Cells (%): 10^−5 M one dose.
In a further data set the test system is MCF7. Nature of the data set: NCI-60 screen, Breast Cancer MCF7. The data set is classed as cell-based, human. The following applies: for Growth of Cells (%): MCF7, 10^−5 M one dose.
The nature of data set [1]: MTT cell viability assay, HaCaT. The data set is classed as cell-based, human. To be noted: HaCaT keratinocytes (normal cell line), HaCaT human keratinocytes, 50 µM. How it is done:
as §1, §2, §3, §4

The subject of the next data set is M14. Nature of the data set: cells. To be noted: Homo sapiens.
[2] abbreviates: Homo sapiens, five doses 10^−4–10^−8 M.
Setting [3] is: Homo sapiens, MOLT-4, five doses 10^−4–10^−8 M.
The mark [4] stands for this setting: Homo sapiens, HOP-92, five doses 10^−4–10^−8 M.
Where [5] appears, read: Homo sapiens, five doses 10^−4–10^−8 M, read-out: log LC50 (the source's name) (converted).
Where [6] appears, read: Homo sapiens, COLO-205, five doses 10^−4–10^−8 M.
The mark [7] stands for this setting: Homo sapiens, SF-295, five doses 10^−4–10^−8 M.

The structures appear in SMILES notation.

As usually defined, the IC50 is the point on the concentration scale where inhibition reaches its midpoint. For the molecule `O=c1[nH]c(C(F)(F)F)nc2c1sc(=S)n2-c1ccccc1` [Compound 2b, 3-phenyl-2-thioxo-5-(trifluoromethyl)-2,3-dihydro[1, 3]thiazolo[4,5-d]pyrimidin-7(6H)-one], the IC50 worked out at 356 ± 14.7 µM in the data set on DU145 and 319 ± 13.1 µM with CHO-K1. Further, the “Growth of Cells (%)” value was determined as 149.39% in the data set on HL-60(TB); 117.56% in the data set on MOLT-4; 97.54% with HOP-92; 112.30% with NCI-H23; 128.80% in the data set with NCI-H322M; 114.26% with COLO-205. For the same molecule, the “Growth of Cells (%)” value with KM12 came to 100.96%; with SF-295, 116.63%; in the data set on NCI/ADR-RES, 25.77%; in the data set on MCF7, 111.19%.
One may read the viability as a read-out of living cells in per cent, often relative to untreated cells. A high value points to better survival. For orientation: GI50 means the concentration giving 50% growth inhibition. As a reminder, the LC50 is the concentration lethal to half of the exposed cells or organisms. Low values mean a more lethal substance, high ones a less lethal substance. On to `FC(F)(F)c1nc(Cl)c2sc(=S)n(-c3ccccc3)c2n1` [Compound 3b, 7-chloro-3-phenyl-5-(trifluoromethyl)[1, 3]thiazolo[4,5-d]pyrimidine-2(3H)-thione], for which the results for the IC50 in the data set on DU145 and with CHO-K1 were 55.1 ± 1.1 µM and 75.5 ± 1.6 µM, respectively. For the same molecule, the viability at 72 h, 50 µM in data set [1] came to 20%. In addition, the “Growth of Cells (%)” value in the data set on HL-60(TB) is given as −41.20%; with MOLT-4, −27.71%; with HOP-92, −21.23%; in the data set with NCI-H23, 99.73%; in the data set on NCI-H322M, 101.54%; in the data set on COLO-205, 30.63%. For the same molecule, the “Growth of Cells (%)” value with KM12 came to 90.93%; with NCI/ADR-RES, 109.92%; in the data set with MCF7, 22.84%. Moreover, the 50% growth inhibitory concentration (GI50) in the data set with HL-60(TB) (setting [2]) was 1.55 µM; in the data set on MOLT-4 (setting [3]) it was 3.09 µM; in the data set with HOP-92 (setting [4]), 1.26 µM; with NCI-H23 (Homo sapiens, NCI-H23, five doses 10^−4–10^−8 M), 3.09 µM; in the data set with NCI-H322M (setting [2]), 3.8 µM; in the data set on COLO-205 (setting [6]), 1.95 µM. Further, the concentration for 50% growth inhibition (GI50) in the data set with KM12 (Homo sapiens, KM12, five doses 10^−4–10^−8 M) was 2.29 µM; with SF-295 (setting [7]), 12.3 µM; in the data set with NCI/ADR-RES (setting [2]) it was 3.31 µM; in the data set with MCF7 (Homo sapiens, MCF7, five doses 10^−4–10^−8 M), 2.24 µM; in the data set on M14 (M14, read-out: log GI50 (converted)) it was 2 µM. In addition, the “log TGI” value was −5.41 log M in the data set with HL-60(TB) (five doses 10^−4–10^−8 M); −5.07 log M in the data set on MOLT-4 (MOLT-4, five doses 10^−4–10^−8 M); −5.56 log M in the data set on HOP-92 (HOP-92, five doses 10^−4–10^−8 M); −4.95 log M in the data set with NCI-H23 (NCI-H23, five doses 10^−4–10^−8 M); −4.90 log M with NCI-H322M (five doses 10^−4–10^−8 M); −5.44 log M with COLO-205 (COLO-205, five doses 10^−4–10^−8 M). Moreover, the “log TGI” value was −5.30 log M in the data set with KM12 (KM12, five doses 10^−4–10^−8 M); −4.59 log M in the data set with SF-295 (SF-295, five doses 10^−4–10^−8 M); −4.96 log M with NCI/ADR-RES (five doses 10^−4–10^−8 M); −5.25 log M with MCF7 (MCF7, five doses 10^−4–10^−8 M). Also, the median lethal concentration (LC50) with MOLT-4 (setting [3]) was above 100 µM; with HOP-92 (setting [4]), 5.89 µM; in the data set on COLO-205 (setting [6]), 6.61 µM; in the data set with SF-295 (setting [7]), 52.5 µM. The CC50 with NCI-H23 (Homo sapiens, NCI-H23, five doses 10^−4–10^−8 M, read-out: log LC50 (the source's name) (converted)) was 93.3 µM; with NCI-H322M (setting [5]) it was 38 µM; in the data set with KM12 (Homo sapiens, KM12, five doses 10^−4–10^−8 M, read-out: log LC50 (the source's name) (converted)) it was 14.5 µM; in the data set on NCI/ADR-RES (setting [5]), above 100 µM; in the data set with MCF7 (Homo sapiens, MCF7, five doses 10^−4–10^−8 M, read-out: log LC50 (the source's name) (converted)), 57.5 µM; with M14 (M14, read-out: log LC50 (converted)), 8.32 µM.
Consider `CCNc1nc(C(F)(F)F)nc2c1sc(=S)n2-c1ccccc1` [Compound 4b, 7-(ethylamino)-3-phenyl-5-(trifluoromethyl)[1, 3]thiazolo[4,5-d]pyrimidine-2(3H)-thione], for which the results for the IC50 with DU145 and in the data set with CHO-K1 were 323 ± 13.8 µM and 237 ± 10.1 µM, respectively. The “Growth of Cells (%)” value was determined as 98.91% with HL-60(TB); 81.83% with MOLT-4; 93.44% in the data set on NCI-H23; 105.73% with COLO-205; 89.17% with KM12; 94.05% with SF-295. For the same molecule, the “Growth of Cells (%)” value with NCI/ADR-RES is on record as 92.88%; with MCF7, 96.38%.
`Fc1ccc(CNc2nc(C(F)(F)F)nc3c2sc(=S)n3-c2ccccc2)cc1` [Compound 4c]: the values for the IC50 in the data set with DU145 and in the data set on CHO-K1 were 237 ± 10.3 µM and 549 ± 24 µM, respectively. For the same molecule, the “Growth of Cells (%)” value with HL-60(TB) amounted to 93.41%; in the data set on MOLT-4, 96.58%; in the data set on HOP-92, 106.96%; in the data set with COLO-205, 112.07%; in the data set on KM12 it was 113.23%; in the data set on SF-295, 91.10%. Besides, the results for the “Growth of Cells (%)” value in the data set on NCI/ADR-RES and in the data set on MCF7 were 114.00% and 98.77%, respectively.

The values are drawn from article PMC8778818, “Synthesis, Structural Characterization and Anticancer Activity of New 5-Trifluoromethyl-2-thioxo-thiazolo[4,5-d]pyrimidine Derivatives” (Pharmaceuticals, 2022).
